Key:
[1] = system: rat formalin paw model of inflammatory pain; experiment: Rat formalin paw model of inflammatory pain; type: in vivo; conditions: 0.6 mg/kg, 3 mg/kg and 10 mg/kg oral, 4 h pre-test; early and/or late phases; vs vehicle
Description: In the rat formalin paw model formalin is administered into the right […] of a rat in order to induce pain (observed by hind limb licking duration and frequency).
Male Sprague Dawley rats were divided into three cohorts to enable testing in the Laboras™ equipment to be carried out over three days in a balanced design to give treatment groups of 10. On the day of the study, male Sprague Dawley rats were weighed, tail marked and dosed orally with vehicle, test compound (0.1, 0.3, 0.6, 1, 3 or 10 mg/kg) or pregabalin (30 mg/kg) 4 h pre-test using a 5 mL/kg dosing volume. For Example 6 the vehicle used was 0.5% methylcellulose in water and for Example 8 the vehicle used was 20% HP-b-CD. Up to six animals were dosed at a time. After 4 h, rats received an intraplantar injection of 50 μL of a 2.5% v/v formalin solution into the right hind paw. Rats were immediately placed into the Laboras™ cages and data acquisition started. The primary measures recorded by Laboras™ for the formalin paw model are hind limb licking duration and frequency. Locomotion is also reported as maximum speed, average speed when moving or over the whole-time bin and distance travelled. After 40 min, when data acquisition was complete, rats were removed from the cages.
On removal from the test cages, rats were anaesthetised with the gaseous anaesthetic isoflurane (5% v/v isoflurane in oxygen) and blood samples were collected by cardiac puncture. Brains were then removed, rinsed in phosphate buffered saline (PBS), hemi-sected and frozen separately in liquid nitrogen.
Data were analysed with Statistica software (TIBCO, USA version 11.1). All data are expressed as means±standard error of the mean (sem) to one decimal place. […] Time course data were analysed by repeated measures analysis of variance (ANOVA) followed by one-way ANOVAs at each time point and subsequent Dunnett's post hoc tests. […]

[2] = system: cryopreserved human hepatocytes; experiment: In vitro human hepatocyte stability; type: in vitro ADME; conditions: human hepatocytes 0.5×10^6 cells/mL, 1 μM
Summary of the method: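 Test articles at 1 μM incubated in duplicate with pooled-donor cryopreserved human hepatocytes (0.5×10^6 cells/mL), sampled from 0 to 240 min and quantified by LC-MS/MS after acetonitrile quench. In vitro t½ taken from the depletion slope (−0.693/k) and scaled to unbound CLint in mL/min/kg, mean of duplicates.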

MAGL [3] = target: T1, MAGL (Homo sapiens, UniProt Q99685); experiment: In vitro competitive activity-based protein profiling, PC3 human cell membrane proteomes; type: biochemical; design: endogenous in cells; host or cells: PC3 human cells (membrane proteome); conditions: human PC3 membrane proteome
T1 sequence (Q99685 1-303): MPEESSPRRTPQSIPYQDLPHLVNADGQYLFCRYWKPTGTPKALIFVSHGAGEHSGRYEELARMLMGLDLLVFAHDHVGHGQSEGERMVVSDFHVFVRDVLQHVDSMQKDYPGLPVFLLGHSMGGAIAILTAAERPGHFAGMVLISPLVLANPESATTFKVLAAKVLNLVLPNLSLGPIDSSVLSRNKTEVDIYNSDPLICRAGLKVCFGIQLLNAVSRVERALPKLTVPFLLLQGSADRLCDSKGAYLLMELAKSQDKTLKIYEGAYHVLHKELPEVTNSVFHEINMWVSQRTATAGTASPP
Summary of the method: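 Competitive ABPP in PC3 membrane proteome (2.0 mg/mL protein): inhibitors preincubated 30 min at 37° C, then JW912-Bodipy probe added for 30 min at room temperature. MAGL band fluorescence after SDS-PAGE normalised to DMSO; IC50 from 4-parameter sigmoidal fit.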

MAGL [4] = target: T1, MAGL; experiment: In vitro competitive substrate hydrolysis enzyme activity assay (pNPA), HEK293 cell lysates; type: biochemical; design: expressed in transfected cells; host or cells: HEK293; conditions: HEK293 lysate
Summary of the method: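 Lysates of HEK293 cells expressing human MAGL (~1.2 μg protein) preincubated 30 min at 25° C with inhibitor in 50 mM HEPES pH 7.0, 200 mM KCl, 1 mM EDTA. pNPA substrate then added (2× stock 2.5 mM), and A405 followed for 20 min at 25° C. Rates normalized to DMSO, and IC50 from 4-parameter fit.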

O=C(Nc1cccnn1)[C@H]1CC12CCN(C(=O)OC(C(F)(F)F)C(F)(F)F)CC2 [Example 6, 1,1,1,3,3,3-Hexafluoropropan-2-yl (S)-1-(pyridazin-3-ylcarbamoyl)-6-azaspiro[2.5]octane-6-carboxylate] was tested, and the “measure of spontaneous pain (hind limb licking frequency)” value [1] was “statistically significant reduction”, the “Scaled-up unbound CLint” value [2] was 5.79 mL/min/kg and the IC50 (MAGL [3]) was 0.0046 µM. For the same molecule, the IC50 (MAGL [4]) was 0.00826 µM.

Reference: patent publication US20240018120A1, “MAGL INHIBITORS” (H. LUNDBECK A/S, priority 2020, published 2024)
